{"source": "patent US9125913B2", "about": "“Bcl-2-selective apoptosis-inducing agents for the treatment of cancer and immune diseases” (AbbVie Inc., priority 2008, dated 2015)", "data": [{"tested_on": "GST-Bcl-2", "assay": "TR-FRET binding assay, Bcl-2", "settings": "TR-FRET Ki values", "description": "Tb-anti-GST antibody was purchased from Invitrogen (Catalog No. PV4216).\nRepresentative compounds were serially diluted in dimethyl sulfoxide (DMSO) starting at 50 μM (2× starting concentration; 10% DMSO) and 10 μL were transferred into a 384-well plate.\nThe samples were then mixed on a shaker for 1 minute and incubated for an additional 3 hours at room temperature. For each assay, the probe/antibody and protein/probe/antibody were included on each assay plate as negative and positive controls, respectively. Fluorescence was measured on the Envision (Perkin Elmer) using a 340/35 nm excitation filter and 520/525 (F-Bak peptide) and 495/510 nm (Tb-labeled anti-Histidine antibody) emission filters.\nThe inhibition constant (Ki) is the dissociation constant of an enzyme-inhibitor complex or a protein/small molecule complex, wherein the small molecule is inhibiting binding of one protein to another protein or peptide. […] Inhibition constants were determined using Wang's equation (Wang Z-X., An Exact Mathematical Expression For Describing Competitive Binding Of Two Different Ligands To A Protein Molecule. FEBS Lett. 1995, 360:111-4).", "values": [{"smiles": "CC1(C)CCC(CN2CCN(c3ccc(C(=O)NS(=O)(=O)c4ccc(OCC5(F)CCOCC5)c([N+](=O)[O-])c4)c(Oc4ccc5[nH]ccc5c4)c3)CC2)=C(c2ccc(Cl)cc2)C1", "note": "[EXAMPLE 327, 4-(4-{[2-(4-chlorophenyl)-4,4-dimethylcyclohex-1-en-1-yl]methyl}piperazin-1-yl)-N-({4-[(4-fluorotetrahydro-2H-pyran-4-yl)methoxy]-3-nitrophenyl}sulfonyl)-2-(1H-indol-5-yloxy)benzamide]", "Binding selectivity ratio (Bcl-XL Ki/Bcl-2 Ki)": 3035.4}, {"smiles": "O=C(NS(=O)(=O)c1ccc(NCC2CCOCC2)c(S(=O)(=O)C(F)(F)F)c1)c1ccc(N2CCN(Cc3ccccc3-c3ccc(Cl)cc3)CC2)cc1Oc1ccc2[nH]ccc2c1", "note": "[Example 62, 4-{4-[(4′-chloro-1,1′-biphenyl-2-yl)methyl]piperazin-1-yl}-2-(1H-indol-5-yloxy)-N-({4-[(tetrahydro-2H-pyran-4-ylmethyl)amino]-3-[(trifluoromethyl)sulfonyl]phenyl}sulfonyl)benzamide]", "Binding selectivity ratio (Bcl-XL Ki/Bcl-2 Ki)": 162.4}, {"smiles": "CC1(C)CCC(CN2CCN(c3ccc(C(=O)NS(=O)(=O)c4ccc(NC5CCN(C6CCOCC6)CC5)c([N+](=O)[O-])c4)c(Oc4ccc5[nH]ccc5c4)c3F)CC2)=C(c2ccc(Cl)cc2)C1", "note": "[EXAMPLE 185, 4-(4-{[2-(4-chlorophenyl)-4,4-dimethylcyclohex-1-en-1-yl]methyl}piperazin-1-yl)-3-fluoro-2-(1H-indol-5-yloxy)-N-({3-nitro-4-[(1-tetrahydro-2H-pyran-4-ylpiperidin-4-yl)amino]phenyl}sulfonyl)benzamide]", "Binding selectivity ratio (Bcl-XL Ki/Bcl-2 Ki)": 361.5}, {"smiles": "CC1(C)CCC(CN2CCN(c3ccc(C(=O)NS(=O)(=O)c4ccc(NC5(CO)CCOCC5)c([N+](=O)[O-])c4)c(Oc4ccc5[nH]ccc5c4)c3)CC2)=C(c2ccc(Cl)cc2)C1", "note": "[EXAMPLE 240, 4-(4-{[2-(4-chlorophenyl)-4,4-dimethylcyclohex-1-en-1-yl]methyl}piperazin-1-yl)-N-[(4-{[4-(hydroxymethyl)tetrahydro-2H-pyran-4-yl]amino}-3-nitrophenyl)sulfonyl]-2-(1H-indol-5-yloxy)benzamide]", "Binding selectivity ratio (Bcl-XL Ki/Bcl-2 Ki)": ">795.4"}, {"smiles": "CC1(C)CCC(CN2CCN(c3ccc(C(=O)NS(=O)(=O)c4ccc(NCCN5CCCCC5=O)c([N+](=O)[O-])c4)c(Oc4ccc5[nH]ccc5c4)c3)CC2)=C(c2ccc(Cl)cc2)C1", "note": "[EXAMPLE 267, 4-(4-{[2-(4-chlorophenyl)-4,4-dimethylcyclohex-1-en-1-yl]methyl}piperazin-1-yl)-2-(1H-indol-5-yloxy)-N-[(3-nitro-4-{[2-(2-oxopiperidin-1-yl)ethyl]amino}phenyl)sulfonyl]benzamide]", "Binding selectivity ratio (Bcl-XL Ki/Bcl-2 Ki)": ">1453.3"}, {"smiles": "CC1(C)CCC(CN2CCN(c3ccc(C(=O)NS(=O)(=O)c4ccc(NCCOC(F)(F)F)c([N+](=O)[O-])c4)c(Oc4cccc5[nH]ccc45)c3)CC2)=C(c2ccc(Cl)cc2)C1", "note": "[EXAMPLE 292, 4-(4-{[2-(4-chlorophenyl)-4,4-dimethylcyclohex-1-en-1-yl]methyl}piperazin-1-yl)-2-(1H-indol-4-yloxy)-N-[(3-nitro-4-{[2-(trifluoromethoxy)ethyl]amino}phenyl)sulfonyl]benzamide]", "Binding selectivity ratio (Bcl-XL Ki/Bcl-2 Ki)": ">1104.2"}, {"smiles": "CC1(C)CCC(CN2CCN(c3ccc(C(=O)NS(=O)(=O)c4ccc(OC5CCN(C6CCOCC6)CC5)c([N+](=O)[O-])c4)c(Oc4ccc5[nH]ccc5c4)c3)CC2)=C(c2ccc(Cl)cc2)C1", "note": "[EXAMPLE 389, 4-(4-{[2-(4-chlorophenyl)-4,4-dimethylcyclohex-1-en-1-yl]methyl}piperazin-1-yl)-2-(1H-indol-5-yloxy)-N-({3-nitro-4-[(1-tetrahydro-2H-pyran-4-ylpiperidin-4-yl)oxy]phenyl}sulfonyl)benzamide]", "Binding selectivity ratio (Bcl-XL Ki/Bcl-2 Ki)": 685.5}, {"smiles": "CC1(C)CCC(CN2CCN(c3ccc(C(=O)NS(=O)(=O)c4cnc(OCC5CCOCC5)c(Br)c4)c(Oc4cccc5[nH]ccc45)c3)CC2)=C(c2ccc(Cl)cc2)C1", "note": "[EXAMPLE 364, N-{[5-bromo-6-(tetrahydro-2H-pyran-4-ylmethoxy)pyridin-3-yl]sulfonyl}-4-(4-{[2-(4-chlorophenyl)-4,4-dimethylcyclohex-1-en-1-yl]methyl}piperazin-1-yl)-2-(1H-indol-4-yloxy)benzamide]", "Binding selectivity ratio (Bcl-XL Ki/Bcl-2 Ki)": 12197.3}, {"smiles": "CC1(C)CCC(CN2CCN(c3ccc(C(=O)NS(=O)(=O)c4cnc(NCC5CCOCC5)c(Br)c4)c(Oc4cccc5[nH]ccc45)c3)CC2)=C(c2ccc(Cl)cc2)C1", "note": "[EXAMPLE 325, N-({5-bromo-6-[(tetrahydro-2H-pyran-4-ylmethyl)amino]pyridin-3-yl}sulfonyl)-4-(4-{[2-(4-chlorophenyl)-4,4-dimethylcyclohex-1-en-1-yl]methyl}piperazin-1-yl)-2-(1H-indol-4-yloxy)benzamide]", "Binding selectivity ratio (Bcl-XL Ki/Bcl-2 Ki)": ">283.1"}, {"smiles": "O=C(NS(=O)(=O)c1ccc(NCc2cccs2)c([N+](=O)[O-])c1)c1ccc(N2CCN(Cc3ccccc3-c3ccc(Cl)cc3)CC2)cc1Oc1ccccc1", "note": "[Example 162, 4-{4-[(4′-chloro-1,1′-biphenyl-2-yl)methyl]piperazin-1-yl}-N-({3-nitro-4-[(thien-2-ylmethyl)amino]phenyl}sulfonyl)-2-phenoxybenzamide]", "Binding selectivity ratio (Bcl-XL Ki/Bcl-2 Ki)": 123.8}, {"smiles": "CC1(C)CCC(CN2CCN(c3ccc(C(=O)NS(=O)(=O)c4ccc(C(=O)NCC5CCOCC5)cc4)c(Oc4ccc5[nH]ccc5c4)c3)CC2)=C(c2ccc(Cl)cc2)C1", "note": "[EXAMPLE 308, 4-(4-{[2-(4-chlorophenyl)-4,4-dimethylcyclohex-1-en-1-yl]methyl}piperazin-1-yl)-2-(1H-indol-5-yloxy)-N-[(4-{[(tetrahydro-2H-pyran-4-ylmethyl)amino]carbonyl}phenyl)sulfonyl]benzamide]", "Binding selectivity ratio (Bcl-XL Ki/Bcl-2 Ki)": ">11.5"}, {"smiles": "CC1(C)CCC(CN2CCN(c3ccc(C(=O)NS(=O)(=O)c4ccc(NCCCN5CCNC(=O)C5)c([N+](=O)[O-])c4)c(Oc4cccc5[nH]ccc45)c3)CC2)=C(c2ccc(Cl)cc2)C1", "note": "[EXAMPLE 223, 4-(4-{[2-(4-chlorophenyl)-4,4-dimethylcyclohex-1-en-1-yl]methyl}piperazin-1-yl)-2-(1H-indol-4-yloxy)-N-[(3-nitro-4-{[3-(3-oxopiperazin-1-yl)propyl]amino}phenyl)sulfonyl]benzamide]", "Binding selectivity ratio (Bcl-XL Ki/Bcl-2 Ki)": 574.1}, {"smiles": "CC1(C)CCC(CN2CCN(c3ccc(C(=O)NS(=O)(=O)c4cnc(NCC5(F)CCOCC5)c(Cl)c4)c(Oc4cccc5[nH]ncc45)c3)CC2)=C(c2ccc(Cl)cc2)C1", "note": "[EXAMPLE 413, N-[(5-chloro-6-{[(4-fluorotetrahydro-2H-pyran-4-yl)methyl]amino}pyridin-3-yl)sulfonyl]-4-(4-{[2-(4-chlorophenyl)-4,4-dimethylcyclohex-1-en-1-yl]methyl}piperazin-1-yl)-2-(1H-indazol-4-yloxy)benzamide]", "Binding selectivity ratio (Bcl-XL Ki/Bcl-2 Ki)": 803.8}, {"smiles": "CC1(C)CCC(CN2CCN(c3ccc(C(=O)NS(=O)(=O)c4ccc(NC[C@H]5CCCO5)c([N+](=O)[O-])c4)c(Oc4ccc5[nH]ccc5c4)c3)CC2)=C(c2ccc(Cl)cc2)C1", "note": "[EXAMPLE 370, 4-(4-{[2-(4-chlorophenyl)-4,4-dimethylcyclohex-1-en-1-yl]methyl}piperazin-1-yl)-2-(1H-indol-5-yloxy)-N-[(3-nitro-4-{[(2R)-tetrahydrofuran-2-ylmethyl]amino}phenyl)sulfonyl]benzamide]", "Binding selectivity ratio (Bcl-XL Ki/Bcl-2 Ki)": ">729.9"}, {"smiles": "CC1(C)CCC(CN2CCN(c3ccc(C(=O)NS(=O)(=O)c4cnc(NCC5CCOCC5)c(-c5nccs5)c4)c(Oc4cccc5[nH]ccc45)c3)CC2)=C(c2ccc(Cl)cc2)C1", "note": "[EXAMPLE 365, 4-(4-{[2-(4-chlorophenyl)-4,4-dimethylcyclohex-1-en-1-yl]methyl}piperazin-1-yl)-2-(1H-indol-4-yloxy)-N-{[6-[(tetrahydro-2H-pyran-4-ylmethyl)amino]-5-(1,3-thiazol-2-yl)pyridin-3-yl]sulfonyl}benzamide]", "Binding selectivity ratio (Bcl-XL Ki/Bcl-2 Ki)": ">612.9"}, {"smiles": "CN1CCC(COc2ccc(S(=O)(=O)NC(=O)c3ccc(N4CCN(CC5=C(c6ccc(Cl)cc6)CC(C)(C)CC5)CC4)cc3Oc3ccc4[nH]ccc4c3)cc2[N+](=O)[O-])CC1", "note": "[EXAMPLE 354, 4-(4-{[2-(4-chlorophenyl)-4,4-dimethylcyclohex-1-en-1-yl]methyl}piperazin-1-yl)-2-(1H-indol-5-yloxy)-N-({4-[(1-methylpiperidin-4-yl)methoxy]-3-nitrophenyl}sulfonyl)benzamide]", "Binding selectivity ratio (Bcl-XL Ki/Bcl-2 Ki)": 148.8}, {"smiles": "CC1(C)CCC(CN2CCN(c3ccc(C(=O)NS(=O)(=O)c4ccc(OC[C@@H]5COCCO5)c([N+](=O)[O-])c4)c(Oc4ccc5[nH]ccc5c4)c3)CC2)=C(c2ccc(Cl)cc2)C1", "note": "[EXAMPLE 347, 4-(4-{[2-(4-chlorophenyl)-4,4-dimethylcyclohex-1-en-1-yl]methyl}piperazin-1-yl)-N-({4-[(2S)-1,4-dioxan-2-ylmethoxy]-3-nitrophenyl}sulfonyl)-2-(1H-indol-5-yloxy)benzamide]", "Binding selectivity ratio (Bcl-XL Ki/Bcl-2 Ki)": 1256.7}, {"smiles": "CC1(C)CCC(CN2CCN(c3ccc(C(=O)NS(=O)(=O)c4ccc(NCC(F)F)c([N+](=O)[O-])c4)c(Oc4ccc5[nH]ccc5c4)c3)CC2)=C(c2ccc(Cl)cc2)C1", "note": "[EXAMPLE 302, 4-(4-{[2-(4-chlorophenyl)-4,4-dimethylcyclohex-1-en-1-yl]methyl}piperazin-1-yl)-N-({4-[(2,2-difluoroethyl)amino]-3-nitrophenyl}sulfonyl)-2-(1H-indol-5-yloxy)benzamide]", "Binding selectivity ratio (Bcl-XL Ki/Bcl-2 Ki)": ">1309.5"}]}]}
